Measured values published in PMC3671111, “A Phase I, open-label, randomized, crossover study in three parallel groups to evaluate the effect of Rifampicin, Ketoconazole, and Omeprazole on the pharmacokinetics of THC/CBD oromucosal spray in healthy volunteers” (SpringerPlus, 2013).
Marks after values point to notes of the source that are not given here.

Columns and labels:
[1] = Phase I drug-drug interaction PK, Group 2: THC/CBD spray alone or with ketoconazole, plasma by GC-MS; conditions: for AUC(0-inf) / AUC(0-t) / Cmax / Kel / t½ / Tmax: plasma; for AUC(0-inf) / AUC(0-t) / Cmax / Kel / t½: mean (SD); for Tmax: median (range)
Description: (§1) Subjects received rifampicin on Days 1-9. […] Subjects received ketoconazole on Days 1-4.
(§2) Blood samples were collected at specified times and stored on ice (except rifampicin PK samples which were stored in iced water) prior to processing and storage. Plasma samples were separated by centrifugation (approximately 2500 rpm × 15 minutes at 4°C). Samples were stored in 4 mL amber glass screw top glass vials with PTFE lined screw caps labelled with Guys Drug Research (Quintiles Limited) labels. The aliquots were stored in clearly labelled containers in a freezer set at or below -20°C, until shipped for assay. Samples were shipped on dry ice at the appropriate time-points.
(§3) The assay validation was undertaken by Advanced Bioanalytical Service Laboratories (London, UK), who developed the technique after reviewing the literature, which was based on the methodology adopted by three different groups (Foltz et al. [1983]; Goodall & Basteyns [1995]; Kemp et al. [1995]), and designed with reference to FDA guidelines for industry (FDA Guidance for Industry [2012]). The method utilised protein precipitation, solvent extraction and derivatisation for the sample preparation and then sample analysis by capillary gas chromatography and detection by a mass spectrometer (GC-MS). The validation procedure investigated the calibration model with the best regression fit over the concentration range 0.1 - 100 ng/mL for CBD, THC and 11-OH-THC, as well as precision and accuracy of the method, stability, carry-over, and specificity.
(§4) Human plasma from healthy volunteers was used to prepare the standards and quality control (QC) samples, with analytes extracted using hexane/ethyl acetate (7:1 ratio), derivatised with N,O-Bis(trimethylsilyl)trifluoroacetamide. Analytic grade THC (Sigma, UK), CBD (Sigma, UK) and 11-OH-THC (Radian International and Cerillant, UK) were obtained, and three sets of CBD, THC and 11-OH-THC were used to support the study. Deuterated THC-d3 (Sigma, UK) was used as the internal standard. The GC-MS equipment was a Hewlett Packard 6890 Gas Chromatograph attached to a Hewlett Packard 5973 Mass Selective Detector. Data handling was carried out using an MS Chemstation System and the peak area ratio of the analytes to the internal standard was calculated in Excel (2000). The concentrations were calculated from the ratio data using least squares ln(y) on ln(x) regression performed in Excel (2000), and were then checked manually. Regression analysis was undertaken to find the regression model that best described the calibration data (for details, see ([Miller & Miller 1992])).
(§5) A 0.5 mL aliquot of test sample, QC or blank plasma was placed into a test tube. The blank plasma was spiked with 50 μL of the appropriate standard solution to produce the calibration standards. 50 μL of the internal standard was added to each test tube. The samples were then diluted by the addition of 500 μL of 0.1% (w/v) ascorbic acid and the protein precipitated by the addition of 1.0 mL of acetonitrile. The proteins were removed by centrifugation and the supernatant concentrated to 1 mL using nitrogen at 50 °C. The samples were then basified by the addition of 300 μL of 5M sodium hydroxide and the analytes extracted by the addition of 2.0 mL of 7:1 hexane:ethyl acetate. After mixing for 16 minutes the tubes were centrifuged and the top layer transferred into clean 3 dram vials. The solvent was removed using nitrogen at 70 °C and the dried extract resuspended in 100 μL of BSTFA and transferred to microvials, capped and placed at 70 °C for 30 minutes to derivatise the analytes. The microvials were then cooled and loaded onto the autosampler tray for analysis where 1 μL was injected onto the GC-MS system.

[2] = Phase I drug-drug interaction PK, Group 3: THC/CBD spray alone or with omeprazole, plasma by GC-MS; conditions: for AUC(0-inf) / AUC(0-t) / Cmax / Kel / t½ / Tmax: n = 12, plasma; for AUC(0-inf) / AUC(0-t) / Cmax / Kel / t½: mean (SD); for Tmax: median (range); for Cmax and AUC % Co-efficient of Variation (CV%) range: inter-subject variability
Description: as §1, §2, §3, §4, §5

[3] = Phase I drug-drug interaction PK, Group 1: THC/CBD spray alone or with rifampicin, plasma by GC-MS; conditions: for AUC(0-inf) / AUC(0-t) / Cmax / Kel / t½ / Tmax: n = 12, plasma; for AUC(0-inf) / AUC(0-t) / Cmax / Kel / t½: mean (SD); for Tmax: median (range)
Description: as §1, §2, §3, §4, §5

[4] = Ketoconazole and THC/CBD spray vs THC/CBD spray alone, no-interaction range 0.80 to 1.25
[5] = THC/CBD spray 4 sprays and ketoconazole 400 mg at end of 5-day dosing period, n = 11
[6] = THC/CBD spray alone, single dose 4 sprays (10.8/10 mg), ketoconazole group, n = 12
[7] = THC/CBD spray co-administered with ketoconazole vs alone
[8] = Omeprazole and THC/CBD spray vs THC/CBD spray alone, no-interaction range 0.80 to 1.25
[9] = THC/CBD spray 4 sprays and omeprazole 40 mg at end of 6-day dosing period
[10] = THC/CBD spray alone, single dose 4 sprays (10.8/10 mg), omeprazole group
[11] = THC/CBD spray co-administered with omeprazole vs alone
[12] = Rifampicin and THC/CBD spray vs THC/CBD spray alone, no-interaction range 0.80 to 1.25
[13] = THC/CBD spray 4 sprays and rifampicin 600 mg after repeated daily dosing
[14] = THC/CBD spray alone, single dose 4 sprays (10.8/10 mg), rifampicin group
[15] = THC/CBD spray co-administered with rifampicin vs alone

Substance: 11-hydroxy-THC [11-OH-THC]
- Geometric mean ratio of AUC(0-inf), point estimate [1, 4]: 3.616
- Geometric mean ratio of AUC(0-t), point estimate [1, 4]: 3.823
- Geometric mean ratio of Cmax, point estimate [1, 4]: 3.074
- AUC(0-inf) [1, 5]: 95.26 (48.93) h*ng/mL
- AUC(0-t) [1, 5]: 84.34 (40.18) h*ng/mL
- Cmax [1, 5]: 10.92 (3.83) ng/mL
- Kel [1, 5]: 0.095 (0.016) h^-1
- t½ [1, 5]: 7.48 (1.39) h
- Tmax [1, 5]: 2.25 (1.50-4.13) h
- AUC(0-inf) [1, 6]: 27.13 (13.34)^d h*ng/mL
- AUC(0-t) [1, 6]: 21.78 (11.34) h*ng/mL
- Cmax [1, 6]: 3.59 (1.67) ng/mL
- Kel [1, 6]: 0.076 (0.014)^d h^-1
- t½ [1, 6]: 9.51 (2.18)^d h
- Tmax [1, 6]: 1.50 (1.00-6.00) h
- % change in mean Tmax [1, 7]: +50%
- % change in t1/2 [1, 7]: -21%
- Change in mean Cmax ([1]; THC/CBD spray with ketoconazole vs THC/CBD spray alone): +204%
- Substrate for the isoenzyme CYP3A4 (conclusion from ketoconazole interaction) ([1]; suggested by increased exposure with ketoconazole): substrates
- AUC, times higher after CYP3A4 inhibition by ketoconazole ([1]; vs THC/CBD spray alone): 3.8 times
- Cmax, times higher after CYP3A4 inhibition by ketoconazole ([1]; vs THC/CBD spray alone): 3.1 times
- Geometric mean ratio of AUC(0-inf), point estimate [2, 8]: 0.869
- Geometric mean ratio of AUC(0-t), point estimate [2, 8]: 0.869
- Geometric mean ratio of Cmax, point estimate [2, 8]: 0.866
- AUC(0-inf) [2, 9]: 19.80 (9.74) h*ng/mL
- AUC(0-t) [2, 9]: 17.69 (9.05) h*ng/mL
- Cmax [2, 9]: 2.84 (1.40) ng/mL
- Kel [2, 9]: 0.095 (0.029) h^-1
- t½ [2, 9]: 7.98 (2.82) h
- Tmax [2, 9]: 1.52 (1.23-2.50) h
- AUC(0-inf) [2, 10]: 24.17 (16.47) h*ng/mL
- AUC(0-t) [2, 10]: 21.52 (14.76) h*ng/mL
- Cmax [2, 10]: 3.48 (2.27) ng/mL
- Kel [2, 10]: 0.114 (0.062) h^-1
- t½ [2, 10]: 7.30 (2.87) h
- Tmax [2, 10]: 2.00 (1.25-3.02) h
- Plasma concentrations and PK parameters compared with THC/CBD spray alone ([2]; THC/CBD spray at end of 6-day omeprazole dosing): marginally lower
- % change in Tmax [2, 11]: -24%
- % change in t1/2 [2, 11]: +9%
- Substrate for the isoenzyme CYP2C19 (conclusion from omeprazole interaction) ([2]; at the clinically relevant dose of THC/CBD spray investigated): not substrates
- Cmax and AUC % Co-efficient of Variation (CV%) range ([2]; THC/CBD spray alone, omeprazole group): 48-69%
- Cmax and AUC % Co-efficient of Variation (CV%) range ([2]; THC/CBD spray in combination with omeprazole): 40-67%
- Geometric mean ratio of AUC(0-inf), point estimate [3, 12]: 0.131
- Geometric mean ratio of AUC(0-t), point estimate [3, 12]: 0.099
- Geometric mean ratio of Cmax, point estimate [3, 12]: 0.140
- AUC(0-inf) [3, 13]: 2.78 (0.68)^c h*ng/mL
- AUC(0-t) [3, 13]: 1.84 (0.79) h*ng/mL
- Cmax [3, 13]: 0.45 (0.18) ng/mL
- Kel [3, 13]: 0.189 (0.074)^c h^-1
- t½ [3, 13]: 4.19 (1.62)^c h
- Tmax [3, 13]: 1.75 (1.50-2.57) h
- AUC(0-inf) [3, 14]: 21.59 (8.76) h*ng/mL
- AUC(0-t) [3, 14]: 18.61 (7.81) h*ng/mL
- Cmax [3, 14]: 3.38 (1.95) ng/mL
- Kel [3, 14]: 0.083 (0.042) h^-1
- t½ [3, 14]: 9.88 (3.89) h
- Tmax [3, 14]: 1.38 (0.50-6.02) h
- % change in mean t1/2 [3, 15]: -58%
- % change in median Tmax [3, 15]: +27%
- Change in mean Cmax ([3]; THC/CBD spray with rifampicin vs THC/CBD spray alone): -87%
